Test results: patent US20150210660A1, “ALICYCLIC EPOXY COMPOUND AND METHOD FOR PRODUCING SAME” (DAICEL CORPORATION, priority 2012, published 2015)

Experiment: Evaluation of reactivity with acid (stirring with 2-ethylhexanoic acid in 1,3,5-trimethylbenzene at 150° C.)
Assay type: physicochemical
Settings: stirring time 0 hr (before heating), defined as 100%
Description: A mixture was prepared by blending 5.2 g of the 3,4-epoxycyclohexylmethyl 3,5,5-trimethylhexanoate prepared in Example 1 (product of Example 1), 1.4 g of 2-ethylhexanoic acid (trade name Octanoic Acid, supplied by Kyowa Hakko Chemical Co., Ltd.), and 8.5 g of 1,3,5-trimethylbenzene (reagent, supplied by Wako Pure Chemical Industries, Ltd.). The mixture was stirred at 150° C. for 6 hours. The acid value and oxirane oxygen content of the mixture were measured before the stirring with heating, and 2 hours, 4 hours, and 6 hours into the stirring.
The oxirane oxygen content measurement in the evaluation of reactivity with acid was performed by HBr titrimetry in which titration was performed with a N/10 hydrogen bromide solution in acetic acid and with crystal violet as an indicator. The acid value measurement was performed in conformance with a method described in JIS K 0070.
Instead of 3,4-epoxycyclohexylmethyl 3,5,5-trimethylhexanoate, there were prepared 3,4-epoxycyclohexylmethyl(3,4-epoxy)cyclohexane carboxylate (trade name CELLOXIDE 2021P, supplied by Daicel Corporation), 4-vinylcyclohexene oxide (trade name CELLOXIDE 2000, supplied by Daicel Corporation), 1-methyl-4-(2-methyloxiranyl)-7-oxabicyclo[4.1.0]heptane (trade name CELLOXIDE 3000, supplied by Daicel Corporation), D-limonene oxide (supplied by Nippon Terpene Chemicals, Inc.), and di-2-ethylhexyl epoxyhexahydrophthalate (trade name SANSO CIZER E-PS, supplied by New Japan Chemical Co., Ltd.). These epoxides were used in charged amounts given in Table 1 and subjected to evaluation of reactivity with an acid (2-ethylhexanoic acid) by the above procedure.
Table 2 also gives acid residual percentages as calculated from the acid values. The acid residual percentages are percentages of the acid present in the system (in the mixture) at the individual timings (after 2 hours, 4 hours, and 6 hours) in which the amount of the acid present in the system before the stirring with heating (0 hour) was defined as 100%.

SMILES | Acid residual percentage
CCCCC(CC)COC(=O)C1CC2OC2CC1C(=O)OCC(CC)CCCC (stereo not drawn) [SANSO CIZER E-PS, di-2-ethylhexyl epoxyhexahydrophthalate] | 100%
O=C(OCC1CCC2OC2C1)C1CCC2OC2C1 (stereo not drawn) [CELLOXIDE 2021P, 3,4-epoxycyclohexylmethyl(3,4-epoxy)cyclohexane carboxylate] | 100%
C=C(C)C1CCC2(C)OC2C1 [D-Limonene oxide, D-limonene oxide] | 100%

Same assay, conditions: stirring time 0 hr (before heating); HBr titrimetry

SMILES | Oxirane oxygen content
CCCCC(CC)COC(=O)C1CC2OC2CC1C(=O)OCC(CC)CCCC (stereo not drawn) [SANSO CIZER E-PS, di-2-ethylhexyl epoxyhexahydrophthalate] | 1.84%
O=C(OCC1CCC2OC2C1)C1CCC2OC2C1 (stereo not drawn) [CELLOXIDE 2021P, 3,4-epoxycyclohexylmethyl(3,4-epoxy)cyclohexane carboxylate] | 2.00%
C=C(C)C1CCC2(C)OC2C1 [D-Limonene oxide, D-limonene oxide] | 1.92%

Same assay, conditions: stirring time 0 hr (before heating); JIS K 0070

SMILES | Acid value
CCCCC(CC)COC(=O)C1CC2OC2CC1C(=O)OCC(CC)CCCC (stereo not drawn) [SANSO CIZER E-PS, di-2-ethylhexyl epoxyhexahydrophthalate] | 38.13 KOH-mg/g
O=C(OCC1CCC2OC2C1)C1CCC2OC2C1 (stereo not drawn) [CELLOXIDE 2021P, 3,4-epoxycyclohexylmethyl(3,4-epoxy)cyclohexane carboxylate] | 37.56 KOH-mg/g
C=C(C)C1CCC2(C)OC2C1 [D-Limonene oxide, D-limonene oxide] | 38.36 KOH-mg/g

Same assay, conditions: stirring time 2 hrs at 150° C.; HBr titrimetry

SMILES | Oxirane oxygen content
CCCCC(CC)COC(=O)C1CC2OC2CC1C(=O)OCC(CC)CCCC (stereo not drawn) [SANSO CIZER E-PS, di-2-ethylhexyl epoxyhexahydrophthalate] | 1.72%
O=C(OCC1CCC2OC2C1)C1CCC2OC2C1 (stereo not drawn) [CELLOXIDE 2021P, 3,4-epoxycyclohexylmethyl(3,4-epoxy)cyclohexane carboxylate] | 1.51%
C=C(C)C1CCC2(C)OC2C1 [D-Limonene oxide, D-limonene oxide] | 1.56%

Same assay, conditions: stirring time 2 hrs at 150° C.; JIS K 0070

SMILES | Acid value
CCCCC(CC)COC(=O)C1CC2OC2CC1C(=O)OCC(CC)CCCC (stereo not drawn) [SANSO CIZER E-PS, di-2-ethylhexyl epoxyhexahydrophthalate] | 33.80 KOH-mg/g
O=C(OCC1CCC2OC2C1)C1CCC2OC2C1 (stereo not drawn) [CELLOXIDE 2021P, 3,4-epoxycyclohexylmethyl(3,4-epoxy)cyclohexane carboxylate] | 21.23 KOH-mg/g
C=C(C)C1CCC2(C)OC2C1 [D-Limonene oxide, D-limonene oxide] | 26.27 KOH-mg/g

Same assay, conditions: stirring time 2 hrs at 150° C.; calculated from acid values, 0 hr = 100%

SMILES | Acid residual percentage
CCCCC(CC)COC(=O)C1CC2OC2CC1C(=O)OCC(CC)CCCC (stereo not drawn) [SANSO CIZER E-PS, di-2-ethylhexyl epoxyhexahydrophthalate] | 89%
O=C(OCC1CCC2OC2C1)C1CCC2OC2C1 (stereo not drawn) [CELLOXIDE 2021P, 3,4-epoxycyclohexylmethyl(3,4-epoxy)cyclohexane carboxylate] | 57%
C=C(C)C1CCC2(C)OC2C1 [D-Limonene oxide, D-limonene oxide] | 68%

Same assay, conditions: stirring time 4 hrs at 150° C.; HBr titrimetry

SMILES | Oxirane oxygen content
CCCCC(CC)COC(=O)C1CC2OC2CC1C(=O)OCC(CC)CCCC (stereo not drawn) [SANSO CIZER E-PS, di-2-ethylhexyl epoxyhexahydrophthalate] | 1.63%
O=C(OCC1CCC2OC2C1)C1CCC2OC2C1 (stereo not drawn) [CELLOXIDE 2021P, 3,4-epoxycyclohexylmethyl(3,4-epoxy)cyclohexane carboxylate] | 1.33%
C=C(C)C1CCC2(C)OC2C1 [D-Limonene oxide, D-limonene oxide] | 1.38%

Same assay, conditions: stirring time 4 hrs at 150° C.; JIS K 0070

SMILES | Acid value
CCCCC(CC)COC(=O)C1CC2OC2CC1C(=O)OCC(CC)CCCC (stereo not drawn) [SANSO CIZER E-PS, di-2-ethylhexyl epoxyhexahydrophthalate] | 32.16 KOH-mg/g
O=C(OCC1CCC2OC2C1)C1CCC2OC2C1 (stereo not drawn) [CELLOXIDE 2021P, 3,4-epoxycyclohexylmethyl(3,4-epoxy)cyclohexane carboxylate] | 14.54 KOH-mg/g
C=C(C)C1CCC2(C)OC2C1 [D-Limonene oxide, D-limonene oxide] | 22.44 KOH-mg/g

Same assay, conditions: stirring time 4 hrs at 150° C.; calculated from acid values, 0 hr = 100%

SMILES | Acid residual percentage
CCCCC(CC)COC(=O)C1CC2OC2CC1C(=O)OCC(CC)CCCC (stereo not drawn) [SANSO CIZER E-PS, di-2-ethylhexyl epoxyhexahydrophthalate] | 84%
O=C(OCC1CCC2OC2C1)C1CCC2OC2C1 (stereo not drawn) [CELLOXIDE 2021P, 3,4-epoxycyclohexylmethyl(3,4-epoxy)cyclohexane carboxylate] | 39%
C=C(C)C1CCC2(C)OC2C1 [D-Limonene oxide, D-limonene oxide] | 58%

Same assay, conditions: stirring time 6 hrs at 150° C.; HBr titrimetry

SMILES | Oxirane oxygen content
CCCCC(CC)COC(=O)C1CC2OC2CC1C(=O)OCC(CC)CCCC (stereo not drawn) [SANSO CIZER E-PS, di-2-ethylhexyl epoxyhexahydrophthalate] | 1.53%
O=C(OCC1CCC2OC2C1)C1CCC2OC2C1 (stereo not drawn) [CELLOXIDE 2021P, 3,4-epoxycyclohexylmethyl(3,4-epoxy)cyclohexane carboxylate] | 1.11%
C=C(C)C1CCC2(C)OC2C1 [D-Limonene oxide, D-limonene oxide] | 1.25%

Same assay, conditions: stirring time 6 hrs at 150° C.; JIS K 0070

SMILES | Acid value
CCCCC(CC)COC(=O)C1CC2OC2CC1C(=O)OCC(CC)CCCC (stereo not drawn) [SANSO CIZER E-PS, di-2-ethylhexyl epoxyhexahydrophthalate] | 27.97 KOH-mg/g
O=C(OCC1CCC2OC2C1)C1CCC2OC2C1 (stereo not drawn) [CELLOXIDE 2021P, 3,4-epoxycyclohexylmethyl(3,4-epoxy)cyclohexane carboxylate] | 11.22 KOH-mg/g
C=C(C)C1CCC2(C)OC2C1 [D-Limonene oxide, D-limonene oxide] | 19.15 KOH-mg/g

Same assay, conditions: stirring time 6 hrs at 150° C.; calculated from acid values, 0 hr = 100%

SMILES | Acid residual percentage
CCCCC(CC)COC(=O)C1CC2OC2CC1C(=O)OCC(CC)CCCC (stereo not drawn) [SANSO CIZER E-PS, di-2-ethylhexyl epoxyhexahydrophthalate] | 73%
O=C(OCC1CCC2OC2C1)C1CCC2OC2C1 (stereo not drawn) [CELLOXIDE 2021P, 3,4-epoxycyclohexylmethyl(3,4-epoxy)cyclohexane carboxylate] | 30%
C=C(C)C1CCC2(C)OC2C1 [D-Limonene oxide, D-limonene oxide] | 50%
